Laboratory results taken from US9617216B2, “Antifungal oxodihydropyridinecarbohydrazide derivative” (Daewoong Pharmaceutical Co., Ltd., priority 2013, dated 2017).
≈ marks a conversion by molar mass, not a printed value.

Tests used:
Candida albicans = assay: In vitro antifungal activity test (MIC), Candida albicans; format: cell-based; details: Candida albicans; concentration at which growth is inhibited by 80% vs negative control; 35° C., 24 hours, RPMI 1640, alama blue
Method: (§1) The antifungal activities of the compounds of the present invention were evaluated using Candida albicans as yeast fungus, and Aspergillus fumigatus as a filamentous fungus. The above fungi used were all purchased from American Type Culture Collection (ATCC). The strains used in the experiment were inoculated into a Sabouraud dextrose agar medium, and then cultured at 35° C. for a sufficient period of time, e.g., 24 hours for Candida albicans, and about 7 days for Aspergillus fumigatus. As for Candida albicans, about 5 to 7 single colonies were taken from the cultured medium, sufficiently suspended in 1 ml of 0.85% sterile saline solution, and adjusted to have an optical density of 0.095 to 0.107 at 530 nm. A preparation of a strain diluent was diluted in Roswell park memorial institute (RPMI) 1640 medium at a 1:10 ratio, and the resultant was diluted again at a 1:100 ratio to obtain an inoculation preparation for Candida albicans with a concentration of 1.0×10^3 to 5.0×10^3 CFU/mL. As for Aspergillus fumigatus, the cultured Sabouraud dextrose agar was added with 1 mL of 0.2% Tween 20 diluted with 0.85% sterile saline solution, and then the plate was shaken to detach conidium from the plate. The solution collected from the plate surface was transferred into a sterile tube, and placed at room temperature for 5 minutes to deposit heavy substances. The resulting supernatant was transferred into the sterile tube, sufficiently suspended for about 15 seconds, and prepared a strain diluent with a concentration of 0.4×10^6 to 5.0×10^6 CFU/mL using a hemocytometer. The thus prepared strain diluent was diluted in RPMI 1640 medium at a 1:100 ratio to obtain an inoculation preparation for Aspergillus fumigatus. Candida albicans was cultured at 35° C. for 24 hours and Aspergillus fumigatus was cultured at 35° C. for 48 hours, and the concentrations, at which growth is inhibited by 80% or 50% compared to a negative control group, were determined using alama blue color developing reagent. All experiments were repeated twice for each concentration, and the results of antifungal activities (MIC80 MIC50 μg/mL) are shown in Tables 1 to 2.

Aspergillus fumigatus = assay: In vitro antifungal activity test (MIC), Aspergillus fumigatus; format: cell-based; details: Aspergillus fumigatus; concentration at which growth is inhibited by 50% vs negative control; 35° C., 48 hours, RPMI 1640, alama blue
Method: as §1

| SMILES | MIC80 (Candida albicans) [µg/mL] | MIC50 (Aspergillus fumigatus) [µg/mL] |
| --- | --- | --- |
| Cn1cc(C(=O)NNc2ccccc2F)ccc1=O [Example 1, N′-(2-fluorophenyl)-1-methyl-6-oxo-1,6-dihydropyridine-3-carbohydrazide] | 0.05 (≈ 0.191 µM) | 0.1 (≈ 0.383 µM) |
| Cn1cc(C(=O)NNc2ccc(S(=O)(=O)C(F)(F)F)cc2)ccc1=O [Example 10, 1-methyl-6-oxo-N′-(4-((trifluoromethyl)sulfonyl)phenyl)-1,6-dihydropyridine-3-carbohydrazide] | 0.04 (≈ 0.107 µM) | 0.1 (≈ 0.266 µM) |
| Cn1cc(C(=O)NNc2ccc(F)cc2F)ccc1=O [Example 11, N′-(2,4-difluorophenyl)-1-methyl-6-oxo-1,6-dihydropyridine-3-carbohydrazide] | 0.03 (≈ 0.107 µM) | 0.05 (≈ 0.179 µM) |
| Cn1cc(C(=O)NNc2ccc(Cl)cc2Cl)ccc1=O [Example 15, N′-(2,4-dichlorophenyl)-1-methyl-6-oxo-1,6-dihydropyridine-3-carbohydrazide] | 0.03 (≈ 0.0961 µM) | 1.95 (≈ 6.25 µM) |
| Cn1cc(C(=O)NNc2ccc(F)nc2)ccc1=O [Example 18, N′-(6-fluoropyridine-3-yl)-1-methyl-6-oxo-1,6-dihydropyridine-3-carbohydrazide] | 0.03 (≈ 0.114 µM) | 0.4 (≈ 1.53 µM) |
| Cn1cc(C(=O)NNc2cccc(F)c2)cc(Cl)c1=O [Example 24, 5-chloro-N′-(3-fluorophenyl)-1-methyl-6-oxo-1,6-dihydropyridine-3-carbohydrazide] | 0.06 (≈ 0.203 µM) | 1.8 (≈ 6.09 µM) |
| Cn1cc(C(=O)NNc2cccc(Cl)c2)cc(Cl)c1=O [Example 26, 5-chloro-N′-(3-chlorophenyl)-1-methyl-6-oxo-1,6-dihydropyridine-3-carbohydrazide] | 0.06 (≈ 0.192 µM) | 1 (≈ 3.2 µM) |
| O=C(NNc1cccc(F)c1)c1c(Cl)cc(=O)n2c1CCC2 [Example 33, 7-chloro-N′-(3-fluorophenyl)-5-oxo-1,2,3,5-tetrahydroindolizine-8-carbohydrazide] | 0.13 (≈ 0.404 µM) | 0.5 (≈ 1.55 µM) |
| O=C(NNc1ccc(F)cc1)c1c(Cl)cc(=O)n2c1CCC2 [Example 34, 7-chloro-N′-(4-fluorophenyl)-5-oxo-1,2,3,5-tetrahydroindolizine-8-carbohydrazide] | 0.25 (≈ 0.777 µM) | 1 (≈ 3.11 µM) |
| COc1ncc(NNC(=O)c2ccc(=O)n(-c3cccc(Cl)c3)c2)cc1F [Example 48, 1-(3-chlorophenyl)-N′-(5-fluoro-6-methoxypyridine-3-yl)-6-oxo-1,6-dihydropyridine-3-carbohydrazide] | 0.04 (≈ 0.103 µM) | 0.6 (≈ 1.54 µM) |
| O=C(NNc1ccc(F)cc1F)c1ccc(=O)n(Cc2cscn2)c1 [Example 49, N′-(2,4-difluorophenyl)-6-oxo-1-(thiazol-4-ylmethyl)-1,6-dihydropyridine-3-carbohydrazide] | 0.28 (≈ 0.773 µM) | 0.3 (≈ 0.828 µM) |
| O=C(NNc1cc(F)cc(F)c1)c1ccc(=O)n(Cc2ccc(C(F)(F)F)nc2)c1 [Example 53, N′-(3,5-difluorophenyl)-6-oxo-1-((6-(trifluoromethyl)pyridine-3-yl)methyl)-1,6-dihydropyridine-3-carbohydrazide] | 0.04 (≈ 0.0943 µM) | 0.7 (≈ 1.65 µM) |
| O=C(NNc1cccc(F)c1)c1ccc(=O)n(CCc2ccccc2F)c1 [Example 59, 1-(2-fluorophenethyl)-N′-(3-fluorophenyl)-6-oxo-1,6-dihydropyridine-3-carbohydrazide] | 0.14 (≈ 0.379 µM) |  |
| O=C(NNc1cccc(F)c1)c1ccc(=O)n(CCc2ccc(F)cc2)c1 [Example 60, 1-(4-fluorophenethyl)-N′-(3-fluorophenyl)-6-oxo-1,6-dihydropyridine-3-carbohydrazide] | 0.14 (≈ 0.379 µM) |  |
| O=C(NNc1cccc(F)c1)c1ccc(=O)n(CCOc2ccccc2F)c1 [Example 61, 1-(2-(2-fluorophenoxy)ethyl)-N′-(3-fluorophenyl)-6-oxo-1,6-dihydropyridine-3-carbohydrazide] | 0.08 (≈ 0.208 µM) |  |
| O=C(NNc1cccc(F)c1)c1ccc(=O)n(CCOc2ccc(Cl)cc2)c1 [Example 62, 1-(2-(4-chlorophenoxy)ethyl)-N′-(3-fluorophenyl)-6-oxo-1,6-dihydropyridine-3-carbohydrazide] | 0.16 (≈ 0.398 µM) |  |
| O=C(NNc1cccc(F)c1)c1ccc(=O)n(CCOc2cccc(C(F)(F)F)c2)c1 [Example 63, N′-(3-fluorophenyl)-6-oxo-1-(2-(3-(trifluoromethyl)phenoxy)ethyl)-1,6-dihydropyridine-3-carbohydrazide] | 0.09 (≈ 0.207 µM) |  |

| SMILES | MIC80 (Candida albicans) [µg/mL] | MIC50 (Aspergillus fumigatus) [µg/mL] |
| --- | --- | --- |
| O=C(NNc1cccc(F)c1)c1ccc(=O)n(CCOc2ccc(Cl)cc2Cl)c1 [Example 64, 1-(2-(2,4-dichlorophenoxy)ethyl)-N′-(3-fluorophenyl)-6-oxo-1,6-dihydropyridine-3-carbohydrazide] | 0.09 (≈ 0.206 µM) |  |
| O=C(NNc1cccc(F)c1)c1ccc(=O)n(CCOc2ccc(F)cc2)c1 [Example 65, 1-(2-(4-fluorophenoxy)ethyl)-N′-(3-fluorophenyl)-6-oxo-1,6-dihydropyridine-3-carbohydrazide] | 0.08 (≈ 0.208 µM) |  |
| O=C(NNc1cccc(F)c1)c1ccc(=O)n(CC2CCCCC2)c1 [Example 66, 1-(cyclohexylmethyl)-N′-(3-fluorophenyl)-6-oxo-1,6-dihydropyridine-3-carbohydrazide] | 0.27 (≈ 0.786 µM) |  |
| O=C(NNc1ccc(F)cc1)c1ccc(=O)n(CC2CCCCC2)c1 [Example 67, 1-(cyclohexylmethyl)-N′-(4-fluorophenyl)-6-oxo-1,6-dihydropyridine-3-carbohydrazide] | 0.27 (≈ 0.786 µM) |  |
| O=C(Cn1cc(C(=O)NNc2cccc(F)c2)ccc1=O)c1ccc(C(F)(F)F)cc1 [Example 68, N′-(3-fluorophenyl)-6-oxo-1-(2-oxo-2-(4-(trifluoromethyl)phenyl)ethyl)-1,6-dihydropyridine-3-carbohydrazide] | 0.34 (≈ 0.785 µM) |  |
| O=C(Cn1cc(C(=O)NNc2ccc(F)cc2)ccc1=O)c1ccc(C(F)(F)F)cc1 [Example 69, N′-(4-fluorophenyl)-6-oxo-1-(2-oxo-2-(4-(trifluoromethyl)phenyl)ethyl)-1,6-dihydropyridine-3-carbohydrazide] | 0.68 (≈ 1.57 µM) |  |
| O=C(Cn1cc(C(=O)NNc2ccc(F)c(F)c2)ccc1=O)c1ccc(C(F)(F)F)cc1 [Example 70, N′-(3,4-difluorophenyl)-6-oxo-1-(2-oxo-2-(4-(trifluoromethyl)phenyl)ethyl)-1,6-dihydropyridine-3-carbohydrazide] | 0.09 (≈ 0.199 µM) |  |
| O=C(Cn1cc(C(=O)NNc2cccc(F)c2)ccc1=O)Nc1ccc(C(F)(F)F)cc1 [Example 71, 2-(5-(2-(3-fluorophenyl)hydrazinecarbonyl)-2-oxopyridine-1(2H)-yl)-N-(4-(trifluoromethyl)phenyl)acetamide] | 0.04 (≈ 0.0892 µM) |  |
| O=C(Cn1cc(C(=O)NNc2ccc(F)cc2)ccc1=O)Nc1ccc(C(F)(F)F)cc1 [Example 72, 2-(5-(2-(4-fluorophenyl)hydrazinecarbonyl)-2-oxopyridine-1(2H)-yl)-N-(4-(trifluoromethyl)phenyl)acetamide] | 0.09 (≈ 0.201 µM) |  |
| O=C(NNc1cccc(F)c1)c1ccc(=O)n(CCN2CCOCC2)c1 [Example 73, N′-(3-fluorophenyl)-1-(2-morpholinoethyl)-6-oxo-1,6-dihydropyridine-3-carbohydrazide] | 0.56 (≈ 1.55 µM) |  |
| O=C(NNc1ccc(F)cc1)c1ccc(=O)n(CCN2CCOCC2)c1 [Example 74, N′-(4-fluorophenyl)-1-(2-morpholinoethyl)-6-oxo-1,6-dihydropyridine-3-carbohydrazide] | 0.56 (≈ 1.55 µM) |  |
| CN(C)C(=O)Cn1cc(C(=O)NNc2cccc(F)c2)ccc1=O [Example 75, 2-(5-(2-(3-fluorophenyl)hydrazine-1-carbonyl)-2-oxopyridine-1(2H)-yl)-N,N-dimethylacetamide] | 0.26 (≈ 0.782 µM) |  |
| COCCn1cc(C(=O)NNc2cccc(F)c2)ccc1=O [Example 76, N′-(3-fluorophenyl)-1-(2-methoxyethyl)-6-oxo-1,6-dihydropyridine-3-carbohydrazide] | 0.12 (≈ 0.393 µM) |  |
| CN(C)C(=O)Cn1cc(C(=O)NNc2ccc(F)cc2)ccc1=O [Example 77, 2-(5-(2-(4-fluorophenyl)hydrazinecarbonyl)-2-oxopyridine-1(2H)-yl)-N,N-dimethylacetamide] | 1.04 (≈ 3.13 µM) |  |
| COCCn1cc(C(=O)NNc2ccc(F)cc2)ccc1=O [Example 78, N′-(4-fluorophenyl)-1-(2-methoxyethyl)-6-oxo-1,6-dihydropyridine-3-carbohydrazide] | 0.24 (≈ 0.786 µM) |  |
| O=C1NNc2cc(F)ccc2C(=O)OCC/C=C/Cn2cc1ccc2=O [Example 79, (1^5E,10E)-5^5-fluoro-1^1,1^2-dihydro-7-oxa-3,4-diaza-1(5,1)-pyridina-5(1,2)-benzenacyclododecaphan-10-ene-1^2,2,6-trione] | 8.93 (≈ 25 µM) |  |
| O=C1NNc2ccccc2OCC/C=C/Cn2cc1ccc2=O [Example 81, (1^5E,9E)-1^1,1^2-dihydro-6-oxa-3,4-diaza-1(5,1)-pyridina-5(1,2)-benzenacycloundecaphan-9-ene-1^2,2-dione] | 1.95 (≈ 6.26 µM) |  |
